Results published in US10399989B2, “Pyrazolopyrimidine derivatives as BTK inhibitors for the treatment of cancer” (Loxo Oncology, Inc., priority 2016, dated 2019).
Read-outs that look alike come from different tables or passages of the source.

How the values were obtained:
BTK^C481S = BTK^C481S (Homo sapiens (Human), UniProt Q06187, C481S); test: BTK^C481S binding affinity (TR-FRET, LanthaScreen); conditions: 5 h incubation
Experimental: (§1) BTK^C481S binding affinity of each compound tested was determined using a time-resolved fluorescence resonance energy transfer (TR-FRET) methodology. 5 nM Recombinant […] kinase, varying concentrations of inhibitor, 2 nM LanthaScreen™ Eu anti-His Antibody and 30 nM Kinase Tracer 236 was incubated in 1× LanthaScreen™ Kinase Buffer A for 5 h. Recombinant BTK^C481S kinase was purchased from SignalChem and all LanthaScreen™ components were purchased from Invitrogen. Measurements were performed in a reaction volume of 30 μL using half-area 96-well assay plates. The TR-FRET signal was read on a plate reader with an excitation wavelength of 340 nm and detection wavelengths of 615 and 665 nm. Binding affinity was determined for each compound by measuring TR-FRET signal at various concentrations of compound and plotting the relative fluorescence units against the inhibitor concentration to estimate the IC50 from log [Inhibitor] vs response using the Variable Slope model in Graphpad prism from Graphpad software (SanDiego, Calif.).

BTK^WT = BTK^WT (Homo sapiens (Human), UniProt Q06187); test: BTK^WT binding affinity (TR-FRET, LanthaScreen)
Experimental: as §1, with “BTK^WT binding” for “BTK^C481S binding”, “methodology. 2.5” for “methodology. 5”, “and 15” for “and 30”, “Recombinant BTK” for “Recombinant BTK^C481S”, “kinase” for “kinase was purchased from SignalChem”

EGFR = EGFR (Homo sapiens (Human), UniProt P00533); test: EGFR binding affinity (TR-FRET, LanthaScreen); conditions: 5 h incubation
Experimental: EGFR binding affinity was determined using a time-resolved fluorescence resonance energy transfer (TR-FRET) methodology. 2.5 nM Recombinant EGFR, varying concentrations of inhibitor, 2 nM LanthaScreen™ Eu anti-GST Antibody and 3 nM Kinase Tracer 199 was incubated in 1× LanthaScreen™ Kinase Buffer A for 5 h. Recombinant EGFR and all LanthaScreen™ components were purchased from Invitrogen. Measurements were performed in a reaction volume of 30 μL using half-area 96-well assay plates. The TR-FRET signal was read on a plate reader with an excitation wavelength of 340 nm and detection wavelengths of 615 and 665 nm. Binding affinity was determined for each compound by measuring TR-FRET signal at various concentrations of compound and plotting the relative fluorescence units against the inhibitor concentration to estimate the IC50 from log [Inhibitor] vs response using the Variable Slope model in Graphpad prism from Graphpad software (SanDiego, Calif.).

[1] = test system: OCI-Ly10 human DLBCL cells; test: OCI-Ly10 anti-proliferative activity (Resazurin, 72 h); format: cell-based; conditions: Homo sapiens, OCI-Ly10, 72 h, read-out: Proliferation OCI-Ly10-IC50
Experimental: Compounds were assayed for effects on the growth of OCI-Ly10 human DLBCL cells that are dependent on NFκB signalling. OCI-Ly10 cells were grown in suspension in T225 flasks, centrifuged and re-suspended in 2.5% FBS containing media. Cells were then plated at 7.5×10^3 cells per well in 96-well plates in varying concentrations of compound and incubated for 72 h at 37° C. An additional plate of cells to be used as the Day 0 read was seeded without compound addition, Resazurin was added to each well, incubated for 5 h and the fluorescence measured at 590 nm. After 72 h of compound treatment, Resazurin was added to each well of the compound treated plates, incubated for 5 h and the fluorescence measured at 590 nm. The IC50 was then calculated by subtracting the average Day 0 value from each well value from the treated plates, each treatment was then calculated as a percentage of the DMSO control and the percentages plotted against the inhibitor concentration to estimate the IC50 from log [Inhibitor] vs response using the Variable Slope model in Graphpad prism from Graphpad software (SanDiego, Calif.).

[2] = TR-FRET binding, 5 h incubation, read-out: BTK^WT IC50
[3] = Table 6, numeric values, read-out: BTK Binding IC50

BTK^C481S, sequence (Q06187 whole entry C481S): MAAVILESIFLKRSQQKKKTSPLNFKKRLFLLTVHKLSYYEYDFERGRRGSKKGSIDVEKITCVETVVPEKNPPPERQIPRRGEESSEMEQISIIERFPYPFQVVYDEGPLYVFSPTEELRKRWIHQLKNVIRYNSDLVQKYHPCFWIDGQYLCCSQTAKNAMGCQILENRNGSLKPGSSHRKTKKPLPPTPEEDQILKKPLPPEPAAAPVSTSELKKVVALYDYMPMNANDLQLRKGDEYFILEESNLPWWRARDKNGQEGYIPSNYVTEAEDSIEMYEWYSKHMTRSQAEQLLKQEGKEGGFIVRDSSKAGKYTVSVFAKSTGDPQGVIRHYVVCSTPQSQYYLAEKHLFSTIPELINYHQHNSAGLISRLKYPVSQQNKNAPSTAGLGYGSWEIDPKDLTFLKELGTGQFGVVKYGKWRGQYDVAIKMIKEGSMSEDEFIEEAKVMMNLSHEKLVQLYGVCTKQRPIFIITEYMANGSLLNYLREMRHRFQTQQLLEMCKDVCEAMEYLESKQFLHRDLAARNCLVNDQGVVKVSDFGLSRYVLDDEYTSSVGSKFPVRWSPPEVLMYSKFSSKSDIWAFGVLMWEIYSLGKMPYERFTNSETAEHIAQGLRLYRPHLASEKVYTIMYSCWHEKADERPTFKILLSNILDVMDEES
EGFR, sequence (P00533 25-1210): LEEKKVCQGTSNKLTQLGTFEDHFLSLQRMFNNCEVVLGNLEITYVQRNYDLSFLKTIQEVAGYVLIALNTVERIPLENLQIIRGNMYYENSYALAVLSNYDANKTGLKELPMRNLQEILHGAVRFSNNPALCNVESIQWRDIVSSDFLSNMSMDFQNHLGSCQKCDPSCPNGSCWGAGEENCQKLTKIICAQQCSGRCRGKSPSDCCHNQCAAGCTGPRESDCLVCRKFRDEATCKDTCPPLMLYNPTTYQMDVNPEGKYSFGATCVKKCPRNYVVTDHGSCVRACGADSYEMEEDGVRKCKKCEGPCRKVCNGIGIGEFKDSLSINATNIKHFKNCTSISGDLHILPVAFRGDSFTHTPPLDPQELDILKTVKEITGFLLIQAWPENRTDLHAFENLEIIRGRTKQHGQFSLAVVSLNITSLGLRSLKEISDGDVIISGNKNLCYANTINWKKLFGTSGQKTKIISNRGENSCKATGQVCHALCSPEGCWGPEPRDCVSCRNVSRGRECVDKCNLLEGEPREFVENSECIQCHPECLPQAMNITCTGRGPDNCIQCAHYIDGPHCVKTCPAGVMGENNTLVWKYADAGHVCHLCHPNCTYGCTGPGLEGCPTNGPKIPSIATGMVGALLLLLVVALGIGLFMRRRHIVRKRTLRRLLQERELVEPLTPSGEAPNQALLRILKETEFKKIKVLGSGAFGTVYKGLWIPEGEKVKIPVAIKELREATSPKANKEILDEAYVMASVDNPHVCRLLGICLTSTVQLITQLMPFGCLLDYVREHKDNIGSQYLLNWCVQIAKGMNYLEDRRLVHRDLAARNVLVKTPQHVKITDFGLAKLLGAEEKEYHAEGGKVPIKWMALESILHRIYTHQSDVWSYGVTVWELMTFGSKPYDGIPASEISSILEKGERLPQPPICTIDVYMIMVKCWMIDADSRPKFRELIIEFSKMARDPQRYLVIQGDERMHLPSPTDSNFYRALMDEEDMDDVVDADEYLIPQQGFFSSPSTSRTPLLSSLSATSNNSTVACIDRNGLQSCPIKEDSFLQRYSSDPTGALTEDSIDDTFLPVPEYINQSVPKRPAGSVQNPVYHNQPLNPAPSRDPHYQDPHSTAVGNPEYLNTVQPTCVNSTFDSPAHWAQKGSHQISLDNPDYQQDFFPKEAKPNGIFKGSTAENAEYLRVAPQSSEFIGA
BTK^WT, sequence (Q06187 whole entry): as the sequence (Q06187 whole entry C481S) above, with S481C counted along it

IC50 (BTK^C481S) [µM] | IC50 (BTK^WT; [2]) [µM] | IC50 (EGFR) [µM] | IC50 [1] [µM] | IC50 (BTK^WT; [3]) [µM] | SMILES
≤ 0.01 | ≤ 0.01 |  |  |  | COc1ccccc1C(=O)NCc1ccc(-c2nn([C@H]3CC[C@@H](C(=O)N(C)C)CC3)c3ncnc(N)c23)cc1 (single isomer, unassigned; isomer 2) [33-isomer 2]
 |  | 0.01 to 0.1 | 1 to 10 |  | Nc1ncnc2c1c(-c1ccc(CNC(=O)c3ccccc3F)cc1)nn2C1CCCC1 [Example 2, N-[[4-(4-amino-1-cyclopentyl-pyrazolo[3,4-d]pyrimidin-3-yl)phenyl]methyl]-2-fluoro-benzamide]
 | 0.1 to 1 | 0.1 to 1 |  |  | Nc1ncnc2c1c(-c1ccc(CNC(=O)c3ccccc3OC(F)(F)F)cc1)nn2C1CCCC1 [Example 6, N-[[4-(4-Amino-1-cyclopentyl-pyrazolo[3,4-d]pyrimidin-3-yl)phenyl]methyl]-2-(trifluoromethoxy)benzamide]
 |  | > 10 | 0.1 to 1 |  | COc1cc(Cl)ccc1C(=O)NCc1ccc(-c2nn(C3CCCC3)c3ncnc(N)c23)cc1 [Example 9, N-[[4-(4-amino-1-cyclopentyl-pyrazolo[3,4-d]pyrimidin-3-yl)phenyl]methyl]-4-chloro-2-methoxy-benzamide]
 |  | 1 to 10 |  |  | COc1ccccc1C(=O)N(C)Cc1ccc(-c2nn(C3CCCC3)c3ncnc(N)c23)cc1 [Example 17, N-[[4-(4-Amino-1-cyclopentyl-pyrazolo[3,4-d]pyrimidin-3-yl)phenyl]methyl]-2-methoxy-N-methyl-benzamide]
≤ 0.01 | ≤ 0.01 |  |  |  | COc1ccccc1C(=O)NCc1ccc(-c2nn(C3CCC4(CC3)OCCO4)c3ncnc(N)c23)cc1 [Example 19, N-[[4-[4-amino-1-(1,4-dioxaspiro[4.5]decan-8-yl)pyrazolo[3,4-d]pyrimidin-3-yl]phenyl]methyl]-2-methoxy-benzamide]
 |  | 1 to 10 |  |  | N#Cc1cccc(C(=O)NCc2ccc(-c3nn(C4CCCC4)c4ncnc(N)c34)cc2)c1 [Example 20, N-[[4-(4-amino-1-cyclopentyl-pyrazolo[3,4-d]pyrimidin-3-yl)phenyl]methyl]-3-cyano-benzamide]
 |  | 1 to 10 |  |  | COc1c(C)cccc1C(=O)NCc1ccc(-c2nn(C3CCCC3)c3ncnc(N)c23)cc1 [Example 22, N-[[4-(4-amino-1-cyclopentyl-pyrazolo[3,4-d]pyrimidin-3-yl)phenyl]methyl]-2-methoxy-3-methyl-benzamide]
≤ 0.01 | ≤ 0.01 | 0.1 to 1 |  | 0.0014 | COc1ccccc1C(=O)NCc1ccc(-c2nn(C3CCC(C(=O)O)CC3)c3ncnc(N)c23)cc1 (stereo not shown) [Example 30, 4-[4-amino-3-[4-[[(2-methoxybenzoyl)amino]methyl]phenyl]pyrazolo[3,4-d]pyrimidin-1-yl]cyclohexanecarboxylic acid]
≤ 0.01 | ≤ 0.01 |  |  | 0.0012 | COc1ccccc1C(=O)NCc1ccc(-c2nn([C@@H]3CCc4ccccc43)c3ncnc(N)c23)cc1 [Example 56, N-[(4-{4-amino-1-[(1R)-2,3-dihydro-1H-inden-1-yl]-1H-pyrazolo[3,4-d]pyrimidin-3-yl}phenyl)methyl]-2-methoxybenzamide]
1 to 10 | 1 to 10 | 1 to 10 |  |  | COc1ccccc1C(=O)NC1(c2ccc(-c3nn(C4CCCC4)c4ncnc(N)c34)cc2)CC1 [Example 67, N-[1-[4-(4-amino-1-cyclopentyl-pyrazolo[3,4-d]pyrimidin-3-yl)phenyl]cyclopropyl]-2-methoxy-benzamide]
0.1 to 1 | 0.1 to 1 |  |  |  | COc1cc2ccccc2cc1C(=O)NCc1ccc(-c2nn(C3CCCC3)c3ncnc(N)c23)cc1 [Example 71, N-[[4-(4-amino-1-cyclopentyl-pyrazolo[3,4-d]pyrimidin-3-yl)phenyl]methyl]-3-methoxy-naphthalene-2-carboxamide]
 | 0.1 to 1 |  |  |  | Nc1ncnc2c1c(-c1ccc(CNC(=O)c3ccc4ccccc4c3)cc1)nn2C1CCCC1 [Example 72, N-[[4-(4-amino-1-cyclopentyl-pyrazolo[3,4-d]pyrimidin-3-yl)phenyl]methyl]naphthalene-2-carboxamide]
0.01 to 0.1 | 0.1 to 1 | 1 to 10 |  |  | COc1ccccc1C(=O)NCc1c(F)cc(-c2nn(C3CCCC3)c3ncnc(N)c23)cc1F [Example 73, N-[[4-(4-amino-1-cyclopentyl-pyrazolo[3,4-d]pyrimidin-3-yl)-2,6-difluoro-phenyl]methyl]-2-methoxy-benzamide]
≤ 0.01 | ≤ 0.01 | 1 to 10 |  |  | COc1ccccc1C(=O)NCc1ccc(-c2nn(C(C)C)c3ncnc(N)c23)cc1 [Example 78, N-[[4-(4-amino-1-isopropyl-pyrazolo[3,4-d]pyrimidin-3-yl)phenyl]methyl]-2-methoxy-benzamide]
≤ 0.01 | ≤ 0.01 | 1 to 10 |  |  | COc1ccccc1C(=O)NCc1ccc(-c2nn(C3CCCC3)c3ncnc(N)c23)c(C)c1 [Example 79, N-[[4-(4-amino-1-cyclopentyl-pyrazolo[3,4-d]pyrimidin-3-yl)-3-methyl-phenyl]methyl]-2-methoxy-benzamide]
 | 1 to 10 |  | 1 to 10 |  | CC(C)(C)n1nc(-c2ccc(CNC(=O)c3cc4ccccc4o3)cc2)c2c(N)ncnc21 [Example 81, N-[[4-(4-amino-1-tert-butyl-pyrazolo[3,4-d]pyrimidin-3-yl)phenyl]methyl]benzofuran-2-carboxamide]
 | > 10 | > 10 |  |  | Nc1ncnc2c1c(-c1ccc(CNC(=O)c3nc4ccccc4s3)cc1)nn2C1CCCC1 [Example 82, N-[[4-(4-amino-1-cyclopentyl-pyrazolo[3,4-d]pyrimidin-3-yl)phenyl]methyl]-1,3-benzothiazole-2-carboxamide]
 | > 10 |  |  |  | Nc1ncnc2c1c(-c1ccc(CNC(=O)c3cc4ccccc4o3)cc1)nn2C1CCCC1 [Example 83, N-[[4-(4-amino-1-cyclopentyl-pyrazolo[3,4-d]pyrimidin-3-yl)phenyl]methyl]benzofuran-2-carboxamide]
 | 1 to 10 |  |  |  | Nc1ncnc2c1c(-c1ccc(CNC(=O)c3cc4ccccc4s3)cc1)nn2C1CCCC1 [Example 84, N-[[4-(4-amino-1-cyclopentyl-pyrazolo[3,4-d]pyrimidin-3-yl)phenyl]methyl]benzothiophene-2-carboxamide]
 | 1 to 10 |  |  |  | Nc1ncnc2c1c(-c1ccc(CNC(=O)c3ccc4ccccc4n3)cc1)nn2C1CCCC1 [Example 85, N-[[4-(4-amino-1-cyclopentyl-pyrazolo[3,4-d]pyrimidin-3-yl)phenyl]methyl]quinoline-2-carboxamide]
> 10 | > 10 |  |  |  | Nc1ncnc2c1c(-c1ccc(CNC(=O)C3CNc4ccccc4O3)cc1)nn2C1CCCC1 (stereo not shown) [Example 86, N-[[4-(4-Amino-1-cyclopentyl-pyrazolo[3,4-d]pyrimidin-3-yl)phenyl]methyl]-3,4-dihydro-2H-1,4-benzoxazine-2-carboxamide]
 | 1 to 10 |  |  |  | Nc1ncnc2c1c(-c1ccc(CNC(=O)c3cccc4ncoc34)cc1)nn2C1CCCC1 [Example 87, N-[[4-(4-amino-1-cyclopentyl-pyrazolo[3,4-d]pyrimidin-3-yl)phenyl]methyl]-1,3-benzoxazole-7-carboxamide]
 |  | 1 to 10 |  |  | Nc1ncnc2c1c(-c1ccc(CNC(=O)c3cc4ccccc4[nH]3)cc1)nn2C1CCCC1 [Example 88, N-[[4-(4-amino-1-cyclopentyl-pyrazolo[3,4-d]pyrimidin-3-yl)phenyl]methyl]-1H-indole-2-carboxamide]
